Assay results: ChEMBL document CHEMBL1129927, “Further evidence for a dopamine reuptake pharmacophore. The effect of N-methylation on Threo-methylphenidate and its analogs” (Bioorg Med Chem Lett, 1997)

Assays:
[1] = molecular target: Sodium-dependent dopamine transporter (Rattus norvegicus, UniProt P23977); experiment: The compound was tested for its affinity at the rat striatal dopamine transporter by the displacement of [3H]WIN-35428
[2] = Hill coefficient was determined
[3] = Ratio of inhibitory concentration of compound 5d to 6d

Chain of Sodium-dependent dopamine transporter (P23977 whole entry): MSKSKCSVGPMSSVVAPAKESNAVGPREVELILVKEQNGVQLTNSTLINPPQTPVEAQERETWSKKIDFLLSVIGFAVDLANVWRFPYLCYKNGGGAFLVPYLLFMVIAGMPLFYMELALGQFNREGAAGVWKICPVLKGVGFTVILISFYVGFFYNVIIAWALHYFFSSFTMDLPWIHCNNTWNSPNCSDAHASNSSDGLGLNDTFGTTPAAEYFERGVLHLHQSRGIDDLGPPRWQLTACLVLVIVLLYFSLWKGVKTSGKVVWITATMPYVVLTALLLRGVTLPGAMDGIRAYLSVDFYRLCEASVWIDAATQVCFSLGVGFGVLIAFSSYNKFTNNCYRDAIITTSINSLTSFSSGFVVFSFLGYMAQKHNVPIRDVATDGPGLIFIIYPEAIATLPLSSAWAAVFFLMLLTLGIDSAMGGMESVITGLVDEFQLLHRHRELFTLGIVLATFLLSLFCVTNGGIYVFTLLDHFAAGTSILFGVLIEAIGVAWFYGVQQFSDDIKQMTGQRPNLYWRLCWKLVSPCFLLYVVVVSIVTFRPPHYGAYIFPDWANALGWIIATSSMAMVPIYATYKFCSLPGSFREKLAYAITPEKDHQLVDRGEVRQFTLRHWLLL

Structure (SMILES) | IC50 [1] [µM] | Hill coefficient [2] | Ratio [3]
COC(=O)[C@H](c1cccc(Cl)c1)[C@H]1CCCCN1C | 0.161 | 0.96 | 
COC(=O)[C@H](c1ccc(C)cc1)C1CCCCN1 (stereo not given in full) | 0.033 | 1.05 | 4.2
COC(=O)[C@H](c1ccc(O)cc1)[C@H]1CCCCN1 | 0.098 | 1.07 | 
COC(=O)[C@H](c1ccccc1)[C@H]1CCCCN1 |  | 0.9 | 
COC(=O)[C@H](c1cccc(Cl)c1)C1CCCCN1 (stereo not given in full) | 0.0051 | 0.95 | 
COC(=O)[C@H](c1ccccc1)[C@H]1CCCCN1C | 0.5 | 1 | 
COC(=O)[C@H](c1ccc(C)cc1)[C@H]1CCCCN1C | 0.139 | 1.03 | 
COC(=O)[C@H](c1ccc(O)cc1)[C@H]1CCCCN1C | 1.22 | 1.06 | 
COC(=O)[C@H](c1cccc(C)c1)[C@H]1CCCCN1 | 0.0214 | 1.01 | 
COC(=O)[C@H](c1cccc(C)c1)[C@H]1CCCCN1C | 0.108 | 1 | 
